For one compound, IC50 results are on record in patent US12703704B2, “Process for preparing a composition comprising enantiomerically enriched pyrrolo[2,3-d]pyrimidines” (Sun Pharmaceutical Industries, Inc., priority 2020, dated 2026).

Experiment [1] concerns the target JAK1 (Homo sapiens, UniProt P23458). As to the kind of experiment: JAK1 inhibition (IC50). Type of experiment: biochemical. The note with it: Compound A or a pharmaceutically acceptable salt thereof.
Experiment [2] has as its target JAK2 (Homo sapiens, UniProt O60674). The experiment is described as follows: JAK2 inhibition (IC50). The note with it: Compound A or a pharmaceutically acceptable salt thereof. Type of experiment: biochemical.

Bounds are passed on as bounds.

Chain of JAK2 (O60674 whole entry): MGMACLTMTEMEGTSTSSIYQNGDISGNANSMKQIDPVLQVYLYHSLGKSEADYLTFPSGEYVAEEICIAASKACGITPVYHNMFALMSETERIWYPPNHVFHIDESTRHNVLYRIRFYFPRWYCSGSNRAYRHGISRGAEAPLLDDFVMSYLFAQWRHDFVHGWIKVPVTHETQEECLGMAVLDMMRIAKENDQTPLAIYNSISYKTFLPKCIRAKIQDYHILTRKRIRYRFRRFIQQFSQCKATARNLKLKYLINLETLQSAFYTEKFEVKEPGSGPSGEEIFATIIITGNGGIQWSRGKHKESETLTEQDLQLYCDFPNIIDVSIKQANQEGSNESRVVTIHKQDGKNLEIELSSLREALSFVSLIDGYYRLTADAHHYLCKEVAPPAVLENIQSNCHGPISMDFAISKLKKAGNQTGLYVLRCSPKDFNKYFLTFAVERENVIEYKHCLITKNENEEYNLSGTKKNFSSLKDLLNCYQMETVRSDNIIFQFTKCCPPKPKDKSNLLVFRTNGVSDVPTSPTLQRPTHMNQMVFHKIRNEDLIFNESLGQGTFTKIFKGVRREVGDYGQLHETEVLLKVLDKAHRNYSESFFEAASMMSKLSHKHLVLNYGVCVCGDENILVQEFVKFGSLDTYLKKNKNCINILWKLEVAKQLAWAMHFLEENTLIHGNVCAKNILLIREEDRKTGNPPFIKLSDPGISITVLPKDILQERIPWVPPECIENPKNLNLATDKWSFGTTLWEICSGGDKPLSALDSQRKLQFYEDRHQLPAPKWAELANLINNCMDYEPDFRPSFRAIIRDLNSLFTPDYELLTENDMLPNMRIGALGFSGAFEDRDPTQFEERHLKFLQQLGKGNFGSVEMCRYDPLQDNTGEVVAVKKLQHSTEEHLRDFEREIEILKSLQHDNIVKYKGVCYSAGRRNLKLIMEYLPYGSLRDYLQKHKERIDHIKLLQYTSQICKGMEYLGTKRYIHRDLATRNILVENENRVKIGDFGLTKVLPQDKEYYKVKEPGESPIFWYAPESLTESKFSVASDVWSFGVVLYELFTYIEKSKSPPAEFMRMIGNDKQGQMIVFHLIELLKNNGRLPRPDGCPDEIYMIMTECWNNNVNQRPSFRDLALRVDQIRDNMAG
Chain of JAK1 (P23458 whole entry): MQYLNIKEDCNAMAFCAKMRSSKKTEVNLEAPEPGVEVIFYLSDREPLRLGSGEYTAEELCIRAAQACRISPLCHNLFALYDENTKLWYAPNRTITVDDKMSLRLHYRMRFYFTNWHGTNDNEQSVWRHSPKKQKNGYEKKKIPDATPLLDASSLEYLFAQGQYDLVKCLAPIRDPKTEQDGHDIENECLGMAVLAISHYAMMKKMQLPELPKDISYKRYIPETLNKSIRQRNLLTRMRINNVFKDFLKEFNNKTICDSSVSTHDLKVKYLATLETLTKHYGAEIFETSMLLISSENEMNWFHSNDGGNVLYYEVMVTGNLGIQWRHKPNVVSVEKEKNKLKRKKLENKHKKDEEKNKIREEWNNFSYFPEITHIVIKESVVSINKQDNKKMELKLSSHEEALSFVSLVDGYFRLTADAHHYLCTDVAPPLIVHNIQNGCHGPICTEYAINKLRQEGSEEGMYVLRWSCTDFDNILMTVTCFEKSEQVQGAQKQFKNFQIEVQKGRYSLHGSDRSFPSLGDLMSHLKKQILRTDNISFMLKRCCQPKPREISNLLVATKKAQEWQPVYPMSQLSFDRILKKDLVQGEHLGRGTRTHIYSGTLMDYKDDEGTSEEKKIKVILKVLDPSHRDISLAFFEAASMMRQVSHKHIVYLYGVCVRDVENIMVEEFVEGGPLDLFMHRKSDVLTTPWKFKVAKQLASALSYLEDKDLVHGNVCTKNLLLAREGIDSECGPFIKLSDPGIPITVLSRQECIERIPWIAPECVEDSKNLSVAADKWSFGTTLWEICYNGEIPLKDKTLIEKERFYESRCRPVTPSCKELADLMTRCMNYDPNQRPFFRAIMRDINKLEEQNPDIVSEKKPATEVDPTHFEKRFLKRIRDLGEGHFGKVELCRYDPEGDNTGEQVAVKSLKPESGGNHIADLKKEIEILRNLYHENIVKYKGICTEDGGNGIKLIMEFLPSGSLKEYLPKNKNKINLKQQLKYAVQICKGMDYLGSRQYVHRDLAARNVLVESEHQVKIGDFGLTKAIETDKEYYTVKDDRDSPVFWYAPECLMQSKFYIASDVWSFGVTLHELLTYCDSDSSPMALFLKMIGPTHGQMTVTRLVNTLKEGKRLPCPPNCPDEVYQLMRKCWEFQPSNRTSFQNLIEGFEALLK

As usually defined, the IC50 is the concentration needed to halve the response being measured. For `[2H]C1([2H])C([C@@H](CC(N)=O)n2cc(-c3ncnc4[nH]ccc34)cn2)C([2H])([2H])C([2H])([2H])C1([2H])[2H]` [Compound A, (R)-3-(4-(7H-pyrrolo[2,3-d]pyrimidin-4-yl)-1H-pyrazol-1-yl)-3-(cyclopentyl-2,2,3,3,4,4,5,5-d8) propanamide], the IC50 in experiment [1] and in experiment [2] was less than 100 nM each time.
